Experiments:
[1] = tested on: Gram (+) specie Bacillius subtilis; assay: Drug elution and zone of inhibition study (disk susceptibility, M02-A11); assay type: cell-based, Bacillus subtilis
Method: (§1) After preparation, the samples were then cut into disk-sized plastics that were applied to the surface of Mueller-Hinton agar dishes that had been already inoculated with either Gram (+) specie Bacillius subtilis or the Gram (−) specie Escherichia coli at a concentration of 1-5×10^8 cells/mL. After application, the plates were then incubated for five days 30° C., during which the zones of inhibition were measured every 24 hours to determine the change of diameter of the inhibition zone size over time. Samples were run in triplicate (n=3) for each plastic type-additive combination (as well as the LDPE plastic control samples) in order to ensure precision.
(§2) To compare the ability of plastics to elute drug and to determine the effect of the addition of LDPE into plastics, statistical analyses were performed by fitting a regression model.

[2] = tested on: Gram (−) specie Escherichia coli; assay: as above; assay type: cell-based
Method: as §1, §2

bacteria = conditions: cited from earlier work
[3] = plastics with 15% of the additive, range over plastic types
[4] = plastics with the additive imbedded

O=C([O-])c1ccccc1.[Na+] [sodium benzoate]
zone of inhibition at decreased amount of food preservative (in words) ([1]; 10% and 5% additive in the plastic): unable to produce a zone of inhibition

O=NO [sodium nitrite]
inhibition zone after 5 days [2, 3]: 0 mm | zones of inhibition on inoculated petri dishes (in words) [2, 4]: did not generate any zones of inhibition | inhibition zone after 5 days [1, 3]: 0 mm | zones of inhibition on inoculated petri dishes (in words) [1, 4]: did not generate any zones of inhibition

OCC(O)CO [glycerol]
concentration required for bacteriocidial properties (bacteria): at least 28%

From patent US20160289449A1, “PROTEIN-BASED BIOPLASTICS AND METHODS OF USE” (University of Georgia Research Foundation, Inc., priority 2015, published 2016)
